In patent US20240190885A1, “KRAS PROTEIN DEGRADERS, PHARMACEUTICAL COMPOSITIONS THEREOF, AND THEIR THERAPEUTIC APPLICATIONS” (BioTheryX, Inc., priority 2021, published 2024):

Assays:
Format in all cases: cell-based
[1] = test system: Lovo (G13D) cells; assay: Cell viability assay (CELLTITER-GLO), Lovo cells; settings: Homo sapiens, 72 h, 3 days, CELLTITER-GLO luminescence, read-out: Inhibition of Cancerous Cells IC50 Lovo (G13D)
Method: (§1) H358 and SW48 cells were cultured in RPMI 1640 media supplemented with 10% fetal bovine serum, streptomycin, and penicillin. Lovo and SW480 cells were cultured in DMEM media supplemented with 10% fetal bovine serum, streptomycin, and penicillin. The cell lines were plated in their respective medium supplemented with 2.5% fetal bovine serum, streptomycin, and penicillin. All cell lines were plated in white walled 96-well plates at 2,000 cells/well or 384-well plates at 500 cells/well, except Lovo, which were plated at 4,000 or 1,000 cells/well, respectively. The cells were incubated in DMSO (control) or a compound for 3 days at 37° C. under 5% CO2. A CELLTITER-GLO® reagent (100 μL) was then added to each well. After a 10 min incubation with shaking, luminescence was measured using an ENVISION® multimode plate reader.

[2] = test system: SW480 (G12V) cells; assay: Cell viability assay (CELLTITER-GLO), SW480 cells; settings: Homo sapiens, 72 h, 3 days, CELLTITER-GLO luminescence, read-out: Inhibition of Cancerous Cells IC50 SW480 (G12V)
Method: as §1

[3] = test system: SW48 (wt) cells; assay: Cell viability assay (CELLTITER-GLO), SW48 cells; settings: Homo sapiens, 72 h, 3 days, CELLTITER-GLO luminescence, read-out: Inhibition of Cancerous Cells IC50 SW48 (wt)
Method: as §1

[4] = biological target: T1, KRAS (Homo sapiens, UniProt P01116); assay: Protein degradation assay (western blot) in HEK293 cells; settings: 6 h; for percent KRAS protein degradation at 3 µM: compound 3 μM; for KRAS Protein Degradation (%) 5 μM: compound 5 μM
T1 construct: Whole cell extracts were prepared using an immunoprecipitation (IP) lysis buffer; endogenous in cells; host or cells: HEK293
Method: HEK293 cells were grown in RPMI 1640 media supplemented with 10% fetal bovine serum, streptomycin, and penicillin. The cells were plated in 24-well plates in the growth media. The cells were then treated with a compound at indicated concentrations for 6 h. Whole cell extracts were prepared using an immunoprecipitation (IP) lysis buffer. Briefly, the cells were washed once in PBS, and the cell pellets were resuspended in the IP lysis buffer and incubated for 15 min on ice. Cell debris was removed by centrifugation and the cleared whole cell lysates were transferred to new tubes for further analysis.
For a western blot analysis, the whole cell protein extracts were separated on 4-12% SDS-polyacrylamide gels, transferred to nitrocellulose, and probed with primary antibodies. The nitrocellulose is subsequently washed and probed with IRDYE® secondary antibodies. The signals were detected using an ODYSSEY® Imaging System. The antibodies used in the assay included anti-KRAS; […] mouse monoclonal antibody; IRDYE® 680RD goat anti-rabbit antibody; and IRDYE® 800CW goat anti-mouse antibody.

[5] = test system: H358 (G12C) cells; assay: Cell viability assay (CELLTITER-GLO), H358 cells; settings: Homo sapiens, NCI-H358, 72 h, 3 days, CELLTITER-GLO luminescence, read-out: Inhibition of Cancerous Cells IC50 H358 (G12C)
Method: as §1

T1 sequence (P01116 1-188 isoform P01116-2): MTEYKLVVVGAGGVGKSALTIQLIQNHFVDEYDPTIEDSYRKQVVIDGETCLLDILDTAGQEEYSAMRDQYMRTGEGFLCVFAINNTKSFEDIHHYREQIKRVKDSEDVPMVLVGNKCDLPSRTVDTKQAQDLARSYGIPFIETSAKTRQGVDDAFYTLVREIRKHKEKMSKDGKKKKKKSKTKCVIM

| Compound | IC50 [1] [µM] | IC50 [2] [µM] | IC50 [3] [µM] | percent KRAS protein degradation at 3 µM [4] [%] | KRAS Protein Degradation (%) 5 μM [4] [%] | IC50 [5] [µM] |
| --- | --- | --- | --- | --- | --- | --- |
| Cc1nn2c(N3CCN(CCO)CC3)cc(-c3cccc(CCCCCCCCCOC(=O)CC45CC6CC(CC(C6)C4)C5)c3)nc2c1-c1ccccc1 [Compound A6, 9-(3-(7-(4-(2-hydroxyethyl)piperazin-1-yl)-2-methyl-3-phenylpyrazolo[1,5-a]pyrimidin-5-yl)phenyl)nonyl 2-(adamantan-1-yl)acetate] | > 10 | > 10 | > 10 | 10 | 28 | > 10 |
| Cc1nn2c(N3CCN(CCO)CC3)cc(-c3cccc(CCOCCOC(=O)CC45CC6CC(CC(C6)C4)C5)c3)nc2c1-c1ccccc1 [Compound A3, 2-(3-(7-(4-(2-hydroxyethyl)piperazin-1-yl)-2-methyl-3-phenylpyrazolo[1,5-a]pyrimidin-5-yl)phenethoxy)ethyl 2-(adamantan-1-yl)acetate] | 0.98 | 1.2 | 1.4 | 0 | 0 | 3.3 |
| Cc1nn2c(N3CCN(CCO)CC3)cc(-c3ccccc3)nc2c1-c1ccccc1 [drawing 106, reference compound] | – | – | – | 0 | – | – |
| Cc1nn2c(N3CCN(CCO)CC3)cc(-c3cccc(CCOCCNC(=O)CC45CC6CC(CC(C6)C4)C5)c3)nc2c1-c1ccccc1 [Compound A4, 2-(adamantan-1-yl)-N-(2-(3-(7-(4-(2-hydroxyethyl)piperazin-1-yl)-2-methyl-3-phenylpyrazolo[1,5-a]pyrimidin-5-yl)phenethoxy)ethyl)acetamide] | 0.88 | 1.2 | 1.3 | 20 | 51 | 1.6 |
| Cc1nn2c(N3CCN(CCO)CC3)cc(-c3ccccc3)nc2c1-c1cccc(CCCCCCCCCNC(=O)CC23CC4CC(CC(C4)C2)C3)c1 [Compound C2, 2-(Adamantan-1-yl)-N-(9-(3-(7-(4-(2-hydroxyethyl)piperazin-1-yl)-2-methyl-5-phenylpyrazolo[1,5-a]pyrimidin-3-yl)phenyl)nonyl)acetamide] | 3.4 | 2.2 | 4.5 | 0 | 0 | > 10 |
| Cc1nn2c(N3CCN(CCO)CC3)cc(-c3cccc(C#CCCCCCCCOC(=O)CC45CC6CC(CC(C6)C4)C5)c3)nc2c1-c1ccccc1 [Compound A5, 9-(3-(7-(4-(2-hydroxyethyl)piperazin-1-yl)-2-methyl-3-phenylpyrazolo[1,5-a]pyrimidin-5-yl)phenyl)non-8-yn-1-yl 2-(adamantan-1-yl)acetate] | > 10 | > 10 | > 10 | 4 | 18 | > 10 |
| Cc1nn2c(N3CCN(CCO)CC3)cc(-c3ccccc3)nc2c1-c1ccccc1 [drawing 105, reference compound] | 2.6 | 1.4 | 2.7 | – | – | 3.3 |
| Cc1nn2c(N3CCN(CCO)CC3)cc(-c3cccc(CCCCCCCCCNC(=O)CC45CC6CC(CC(C6)C4)C5)c3)nc2c1-c1ccccc1 [Compound A1, 2-(adamantan-1-yl)-N-(9-(3-(7-(4-(2-hydroxyethyl)piperazin-1-yl)-2-methyl-3-phenylpyrazolo[1,5-a]pyrimidin-5-yl)phenyl)nonyl)acetamide] | 4.5 | > 10 | 5 | 7 | 27 | 7.8 |
| Cc1nn2c(N3CCN(CCO)CC3)cc(-c3cccc(CCNC(=O)CC45CC6CC(CC(C6)C4)C5)c3)nc2c1-c1ccccc1 [Compound A2, 2-(adamantan-1-yl)-N-(3-(7-(4-(2-hydroxyethyl)piperazin-1-yl)-2-methyl-3-phenylpyrazolo[1,5-a]pyrimidin-5-yl)phenethyl)acetamide] | 1.2 | 0.84 | 1.4 | 20 | 54 | 1.7 |
